Assays:
[1] = test system: human malignant lymphoma cells (U937); assay: Tumorigenic assay in athymic nude mice; type: in vivo; conditions: U937 cells treated with dThd 0.2 mM for 4 hr followed by STSP 25 nM for 7 hr before subcutaneous inoculation; 14 days
Excerpt: The biologic behavior of xenografts of human malignant cells in immunosuppressed mice can approximate natural growth conditions in a patient, since the cells receive a local supply of plasma nutrients and can survive for several weeks. Thus, inoculated cells may survive in a latent state prior to growth, a condition not readily duplicated in vitro. Inoculum size is critical for observation of tumor growth within a practical time frame. […] After treatment, cells were sedimented and resuspended in serum-free RPMI 1640. In each group four athymic Nu/Nu weanling mice of mean weight 17 gm were inoculated subcutaneously into both subscapular regions with 0.1 ml of RPMI 1640 containing 10^7 cells (viability>90%). Formation of tumors in these subcutaneous sites was observed during the next 14 days. One control mouse died prematurely. At 14 days, all animals were sacrificed, tumors were photographed, tumors were carefully dissected, and tumor weights were recorded. Tumors were verified histologically.

[2] = test system: p34^cdc2, c-myc, JNK, Erk-2; assay: Immunoblot and kinase activity assays (CDC2, c-myc, MAP kinases); type: cell-based, human; conditions: U937, STSP ±dThd or dThd alone
Description: The cyclin-dependent kinase p34^cdc2 was detected with antibody clone #1 from Signal Transduction Laboratories. For detection of histone phosphorylation activity p34^cdc2 was immunoprecipitated with monoclonal antibody (Santa Cruz, #17) using protein A sepharose and reacted with H1 substrate (Boehringer Mannheim) in the presence of γ^32P-ATP Aersham). […] MAP kinases were detected by immnunoblotting with monoclonal antibodies from Pharmingen (San Diego, Calif.). For assay of enzymatic activities, MAP kinases were immunoprecipitated as above with polyclonal antibody to erk2 or with a GST-JNK substrate for JNK. The substrate for erk2 was myelin basic protein substrate and for JNK was GST-JNK (Pharmingen). The protooncogene product c-myc was detected by immunoblotting with an antibody from Oncogene Sciences.

U937 cells = assay: MIS LDH release assay (CytoTox96); type: cell-based, human; conditions: STSP for 14 H, total 18 H, STSP nM: 100,50,25,13,6,3, r16 dThd alone
Description: The MIS set up was identical to that described in Example 8. The relative activity of LDH released into supernatant from each microculture well was detected by a coupled enzymatic assay, Decker et al., J. Immunol. Methods 15:61 (1988), in which the chromogen 2-(p-iodophenyl)-3-(p-nitrophenyl)-5-phenyl tetrazolium chloride (INT) is converted to a red INT-formazan product by NADH in the presence of diaphorase.
In this procedure, after incubation and at the time for assay, 50 μl of fresh medium was added to each microculture well prior to assay and microcultures in the entire 96 well plate were simultaneously sedimented at 400×G for 10 min in a Becton Dickinson refrigerated table top centrifuge using a plate carrier. A 50 μl sample from each microwell then was removed carefully and transferred to a corresponding well in a clean 96 well plate. LDH activity was quantitated by means of the CytoTox96 assay, Promega Corp., Madison, Wis. 53711, according to the manufacturers instructions. In tests to determine the total LDH in each microwell, 10 μl of lysing reagent (from the CytoTox96 assay kit) was added to the fixed 100 μl volume with cells and medium prior to the above step. […].
These formulas use […] in which positive numbers are obtained as compared to % inhibition used above. […] Particularly for the latter purpose, all of the cells in each microculture well were totally lysed with Promega lysing reagent prior to the calorimetric measurement.

Structure (SMILES) | Tumor formation [1] | Phosphorylation of CDC2 [2] | LDH release multiple, dThd 0.02 mM (U937 cells; dThd 0.02 mM for 4 H) | LDH release multiple, dThd 0.06 mM (U937 cells; dThd 0.06 mM for 4 H) | LDH release multiple, dThd 0.09 mM (U937 cells; dThd 0.09 mM for 4 H) | LDH release multiple, dThd 3.0 mM (U937 cells; dThd 3.0 mM for 4 H)
CN[C@@H]1C[C@H]2O[C@@](C)([C@@H]1OC)n1c3ccccc3c3c4c(c5c6ccccc6n2c5c31)C(=O)NC4 [STSP, staurosporine] | developed no tumors |  |  |  |  | 
Cc1cn([C@H]2C[C@H](O)[C@@H](CO)O2)c(=O)[nH]c1=O [dThd, deoxythymidine] |  | not by dThd alone | 1.20 | 1.14 | 1.19 | 3.61

Source: patent US6455593B1, “Method of dynamic retardation of cell cycle kinetics to potentiate cell damage” (priority 1995, dated 2002)
